Measurements taken from ChEMBL document CHEMBL1909046, “DrugMatrix in vitro pharmacology data”.

What was measured:
[1] = target: T1, 5-hydroxytryptamine receptor 2C (Homo sapiens, UniProt P28335); assay: DRUGMATRIX: Serotonin (5-Hydroxytryptamine) 5-HT2C radioligand binding (ligand: [3H] Mesulergine); assay type: cell membranes, CHO-K1, Membrane; details: Not Active = under 50% inhibition at 10 µM
T1 sequence (P28335 whole entry): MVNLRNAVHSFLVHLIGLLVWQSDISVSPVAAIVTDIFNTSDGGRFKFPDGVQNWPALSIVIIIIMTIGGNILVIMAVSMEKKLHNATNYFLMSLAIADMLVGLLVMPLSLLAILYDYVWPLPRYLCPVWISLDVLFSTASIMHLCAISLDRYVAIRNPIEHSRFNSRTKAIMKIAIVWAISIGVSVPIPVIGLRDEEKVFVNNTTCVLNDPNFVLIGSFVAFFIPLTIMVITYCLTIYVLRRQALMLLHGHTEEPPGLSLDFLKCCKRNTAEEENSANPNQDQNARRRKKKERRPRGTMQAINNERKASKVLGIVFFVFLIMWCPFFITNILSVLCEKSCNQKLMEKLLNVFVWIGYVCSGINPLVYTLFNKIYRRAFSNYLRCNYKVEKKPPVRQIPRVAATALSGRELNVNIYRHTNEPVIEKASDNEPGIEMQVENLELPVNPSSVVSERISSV

[2] = target: Mitogen-activated protein kinase 1 (Homo sapiens, UniProt P28482); assay: DRUGMATRIX: Protein Serine/Threonine Kinase, ERK2 enzyme inhibition (substrate: Myelin Basic Protein); design: species or system Escherichia coli; details: Not Active = under 50% inhibition at 10 µM
[3] = target: T2, Cholecystokinin receptor type A (Homo sapiens, UniProt P32238); assay type: cell membranes, Membrane; details: 1321-n1; note: in other assays of this panel Not Active means under 50% inhibition at 10 µM
T2 sequence (P32238 whole entry): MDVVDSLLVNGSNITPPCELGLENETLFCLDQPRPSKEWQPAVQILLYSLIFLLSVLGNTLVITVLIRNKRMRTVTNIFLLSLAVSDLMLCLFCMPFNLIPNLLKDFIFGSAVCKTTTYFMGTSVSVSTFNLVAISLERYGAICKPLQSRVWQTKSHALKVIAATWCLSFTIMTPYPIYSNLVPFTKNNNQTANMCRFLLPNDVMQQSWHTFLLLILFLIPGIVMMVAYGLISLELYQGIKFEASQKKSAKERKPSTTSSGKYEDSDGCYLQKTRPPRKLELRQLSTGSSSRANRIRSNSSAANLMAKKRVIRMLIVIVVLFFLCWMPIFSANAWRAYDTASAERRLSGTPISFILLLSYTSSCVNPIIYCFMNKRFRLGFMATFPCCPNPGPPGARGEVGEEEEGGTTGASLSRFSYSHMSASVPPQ

[4] = DRUGMATRIX: Sigma2 radioligand binding (ligand: [3H] Ifenprodil); assay type: cell membranes, Rattus norvegicus, Wistar, Brain, Membrane; details: Not Active = under 50% inhibition at 10 µM
Estrogen receptor beta = Estrogen receptor beta (Homo sapiens, UniProt Q92731); details: sf9; note: in other assays of this panel Not Active means under 50% inhibition at 10 µM
[5] = target: Sigma non-opioid intracellular receptor 1 (Homo sapiens, UniProt Q99720); assay: DRUGMATRIX: Sigma1 radioligand binding (ligand: [3H] Haloperidol); assay type: cell membranes, Jurkat, Membrane; details: Not Active = under 50% inhibition at 10 µM
Sigma non-opioid intracellular receptor 1, sequence (Q99720 whole entry): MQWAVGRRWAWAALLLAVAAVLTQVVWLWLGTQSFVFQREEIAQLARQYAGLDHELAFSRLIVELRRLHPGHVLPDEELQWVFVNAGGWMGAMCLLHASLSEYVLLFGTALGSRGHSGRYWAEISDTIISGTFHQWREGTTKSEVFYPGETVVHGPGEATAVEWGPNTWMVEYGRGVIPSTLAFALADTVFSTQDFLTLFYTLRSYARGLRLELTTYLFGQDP

Estrogen receptor beta, sequence (Q92731 whole entry): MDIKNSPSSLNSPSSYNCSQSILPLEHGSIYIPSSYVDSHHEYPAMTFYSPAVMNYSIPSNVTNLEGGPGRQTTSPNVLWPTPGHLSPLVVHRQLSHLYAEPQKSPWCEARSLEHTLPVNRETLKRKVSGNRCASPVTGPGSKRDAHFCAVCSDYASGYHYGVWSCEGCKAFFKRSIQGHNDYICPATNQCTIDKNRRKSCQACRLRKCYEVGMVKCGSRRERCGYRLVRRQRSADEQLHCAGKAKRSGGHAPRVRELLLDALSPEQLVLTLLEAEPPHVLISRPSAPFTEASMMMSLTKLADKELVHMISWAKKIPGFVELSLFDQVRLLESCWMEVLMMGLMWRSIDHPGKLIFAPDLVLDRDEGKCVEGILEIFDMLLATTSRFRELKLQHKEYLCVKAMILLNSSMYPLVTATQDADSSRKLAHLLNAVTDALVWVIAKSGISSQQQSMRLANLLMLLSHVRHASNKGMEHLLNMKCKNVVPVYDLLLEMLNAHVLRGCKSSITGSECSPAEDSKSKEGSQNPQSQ
Mitogen-activated protein kinase 1, sequence (P28482 whole entry): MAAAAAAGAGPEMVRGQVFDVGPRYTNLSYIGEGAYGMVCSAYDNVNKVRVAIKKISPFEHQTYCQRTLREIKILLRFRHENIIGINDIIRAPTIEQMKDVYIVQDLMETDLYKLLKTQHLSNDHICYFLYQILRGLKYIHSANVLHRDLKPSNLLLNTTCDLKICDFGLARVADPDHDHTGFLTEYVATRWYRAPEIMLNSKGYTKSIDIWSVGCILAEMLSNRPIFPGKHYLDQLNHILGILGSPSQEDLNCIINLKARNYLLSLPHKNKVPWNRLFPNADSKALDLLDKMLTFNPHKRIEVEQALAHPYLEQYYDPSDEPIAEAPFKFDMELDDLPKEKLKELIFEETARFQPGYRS

Compound	IC50 ([1]; cho-k1)	IC50 [2]	IC50 [3]	IC50 [4]	Ki [4]	IC50 (Estrogen receptor beta)	IC50 ([5]; jurkat)	other results
CC(c1cc2ccccc2s1)N(O)C(N)=O (stereo unspecified) [ZILEUTON]	Not Active	Not Active	Not Active	Not Active	Not Active	Not Active	Not Active	–
O=C1Nc2ccc(Cl)cc2C(c2ccccc2Cl)=NC1O (stereo unspecified) [LORAZEPAM]	Not Active	Not Active	Not Active	Not Active	Not Active	Not Active	Not Active	–
CCN(CC)CCOc1ccc(/C(=C(/Cl)c2ccccc2)c2ccccc2)cc1 [ENCLOMIPHENE]	–	Not Active	Not Active	–	–	Not Active	–	IC50 ([1]; read-out: IC50): 1270 nM; Ki ([1]; read-out: Ki): 666 nM
CC(C)Cc1ccc([C@@H](C)C(=O)O)cc1 [(R)-IBUPROPHEN]	Not Active	Not Active	Not Active	Not Active	Not Active	Not Active	Not Active	–
O=C(Nc1ccc(Br)cc1)c1cc(Br)cc(Br)c1O [TRIBROMSALAN]	Not Active	–	Not Active	Not Active	Not Active	Not Active	Not Active	IC50 ([2]; read-out: IC50): 623 nM
CN(C/C=C/C#CC(C)(C)C)Cc1cccc2ccccc12 [TERBINAFINE]	Not Active	Not Active	Not Active	–	–	Not Active	–	IC50 ([4]; read-out: IC50): 35.4 nM; Ki ([4]; read-out: Ki): 21.8 nM; IC50 ([5]; read-out: IC50): 560 nM; Ki ([5]; read-out: Ki): 235 nM
Cn1c(=O)c2nc[nH]c2n(C)c1=O.O [THEOPHYLLINE]	Not Active	Not Active	Not Active	Not Active	Not Active	–	Not Active	–
CC(C)NCC(O)c1ccc(NS(C)(=O)=O)cc1 (stereo unspecified) [SOTALOL]	Not Active	Not Active	Not Active	Not Active	Not Active	Not Active	Not Active	–
CO[C@@H]1[C@@H](OC)[C@H](C)[C@@](O)(CC(=O)O)O[C@H]1[C@H](C)[C@H]1O[C@@]2(CC[C@@](C)([C@H]3CC[C@@](C)([C@@H]4O[C@@H]([C@H]5O[C@](C)(O)[C@H](C)C[C@@H]5C)C[C@@H]4O[C@@H]4C[C@H](OC)[C@@H](OC)[C@H](C)O4)O3)O2)C[C@H](O)[C@H]1C [MADURAMICIN ACID]	–	Not Active	Not Active	Not Active	Not Active	–	Not Active	IC50 ([1]; read-out: IC50): 34 nM; Ki ([1]; read-out: Ki): 18 nM
SODIUM ORTHOVANAD	Not Active	Not Active	Not Active	Not Active	Not Active	Not Active	Not Active	Ki ([1]; cho-k1): Not Active; Ki [2]: Not Active; Ki [3]: Not Active; Ki (Estrogen receptor beta): Not Active; Ki ([5]; jurkat): Not Active
Cc1cccc(C)c1OCC(C)N (stereo unspecified) [MEXILETINE]	Not Active	Not Active	Not Active	Not Active	Not Active	–	Not Active	–
CC(C)NCC(O)c1ccc(O)c(O)c1 (stereo unspecified) [ISOPROTERENOL]	Not Active	Not Active	Not Active	Not Active	Not Active	Not Active	Not Active	–
NC1CCN(c2nc3c(cc2F)c(=O)c(C(=O)O)cn3-c2ccc(F)cc2F)C1 (stereo unspecified) [TOSUFLOXACIN]	Not Active	Not Active	Not Active	Not Active	Not Active	Not Active	Not Active	–
COc1ccc(CCN(C)CCCC(C#N)(c2ccc(OC)c(OC)c2)C(C)C)cc1OC (stereo unspecified)	–	Not Active	Not Active	–	–	Not Active	Not Active	IC50 ([4]; read-out: IC50): 2820 nM; Ki ([4]; read-out: Ki): 1740 nM
CN[C@H]1CC[C@@H](c2ccc(Cl)c(Cl)c2)c2ccccc21 [SERTRALINE]	–	Not Active	Not Active	–	–	Not Active	–	IC50 ([1]; read-out: IC50): 1080 nM
O=C(Oc1ccccc1C(=O)O)c1ccccc1O [SALSALATE]	Not Active	Not Active	Not Active	Not Active	Not Active	–	Not Active	–
NC(=O)N1C(=O)/C(=C(\O)c2cccs2)c2cc(Cl)ccc21 [TENIDAP]	Not Active	Not Active	Not Active	Not Active	Not Active	Not Active	Not Active	–

Compound	IC50 ([1]; cho-k1)	IC50 [2]	IC50 [3]	IC50 [4]	Ki [4]	IC50 (Estrogen receptor beta)	IC50 ([5]; jurkat)	other results
O=C1C(CC[S+]([O-])c2ccccc2)C(=O)N(c2ccccc2)N1c1ccccc1 (stereo unspecified) [SULFINPYRAZONE]	Not Active	Not Active	Not Active	Not Active	Not Active	–	Not Active	–
C[C@H]1C[C@@H]2[C@H]([C@@H](O)C[C@@]3(C)[C@H]2CC[C@]3(O)C(=O)CO)[C@@]2(C)C=CC(=O)C=C12 [METHYLPREDNISOLONE]	Not Active	Not Active	Not Active	Not Active	Not Active	–	Not Active	–
N#Cc1ccc(C(c2ccc(C#N)cc2)n2cncn2)cc1 [LETROZOLE]	Not Active	Not Active	Not Active	Not Active	Not Active	Not Active	Not Active	–
Fc1ccc(C(c2ccc(F)cc2)N2CCN(C/C=C/c3ccccc3)CC2)cc1 [FLUNARIZINE]	–	Not Active	Not Active	–	–	Not Active	–	IC50 ([1]; read-out: IC50): 669 nM; Ki ([1]; read-out: Ki): 351 nM; IC50 ([5]; read-out: IC50): 25 nM; Ki ([5]; read-out: Ki): 10 nM
COc1cc2nc(N3CCN(C(=O)C4CCCO4)CC3)nc(N)c2cc1OC (stereo unspecified) [TERAZOSIN]	Not Active	Not Active	Not Active	Not Active	Not Active	Not Active	Not Active	–
O=C(O)c1cn(-c2ccc(F)cc2)c2cc(N3CCNCC3)c(F)cc2c1=O [SARAFLOXACIN]	Not Active	Not Active	Not Active	Not Active	Not Active	–	Not Active	–
CO[C@H]1/C=C/O[C@@]2(C)Oc3c(C)c(O)c4c(O)c(c(/C=N/N5CCN(C6CCCC6)CC5)c(O)c4c3C2=O)NC(=O)/C(C)=C\C=C\[C@H](C)[C@H](O)[C@@H](C)[C@@H](O)[C@@H](C)[C@H](OC(C)=O)[C@@H]1C [RIFAPENTINE]	Not Active	Not Active	Not Active	Not Active	Not Active	Not Active	Not Active	–
CCCCOc1cc(CC2CNC(=O)N2)ccc1OC (stereo unspecified) [RO-201724]	Not Active	Not Active	Not Active	Not Active	Not Active	Not Active	Not Active	–
CN(C)CCOC(c1ccccc1)c1ccccc1 [DIPHENHYDRAMINE]	–	Not Active	Not Active	–	–	Not Active	Not Active	–
CCCCNc1ccc(C(=O)OCCN(C)C)cc1 [TETRACAINE]	–	Not Active	Not Active	Not Active	Not Active	–	–	IC50 ([1]; read-out: IC50): 3270 nM; Ki ([1]; read-out: Ki): 1710 nM; IC50 ([5]; read-out: IC50): 1670 nM; Ki ([5]; read-out: Ki): 703 nM
O.O.O.O.O.O.[Cl-].[Cl-].[Sr+2] [STRONTIUM CHLORIDE HEXAHYDRATE]	Not Active	Not Active	Not Active	Not Active	Not Active	–	Not Active	–
CNCCC(Oc1ccc(C(F)(F)F)cc1)c1ccccc1 (stereo unspecified) [FLUOXETINE]	–	Not Active	Not Active	–	–	Not Active	–	–
CS(=O)(=O)c1ccc([C@@H](O)[C@@H](CO)NC(=O)C(Cl)Cl)cc1 [THIAMPHENICOL]	Not Active	Not Active	Not Active	Not Active	Not Active	–	Not Active	–
Cc1ccc(NC(=O)c2ccc(CN3CCN(C)CC3)cc2)cc1Nc1nccc(-c2cccnc2)n1 [IMATINIB]	Not Active	–	Not Active	–	–	Not Active	Not Active	–
Clc1ccc(COC(Cn2ccnc2)c2ccc(Cl)cc2Cl)cc1 (stereo unspecified) [ECONAZOLE]	–	Not Active	Not Active	–	–	Not Active	–	IC50 ([5]; read-out: IC50): 21100 nM; Ki ([5]; read-out: Ki): 8870 nM
CC(C)Oc1ccc2c(=O)c(-c3ccccc3)coc2c1 [IPRIFLAVONE]	Not Active	Not Active	Not Active	Not Active	Not Active	–	Not Active	–
